{"source": "patent US8604192B2", "about": "“Cyclohexenyl nucleic acids analogs” (Isis Pharmaceuticals, Inc., priority 2008, dated 2013)", "key": {"[1]": {"tested_on": "complementary RNA (20-mer RNA)", "experiment": "Tm of gapped oligomeric compound with complementary RNA", "assay_type": "binding", "details": "100 mM phosphate buffer, 0.1 mM EDTA, pH 7, 260 nm, 4 μM oligomeric compound and 4 μM complementary RNA", "procedure": "(§1) Six week old Balb/c mice (Jackson Laboratory, Bar Harbor, Me.) were injected with a single dose of ASOs 464846 and 464847 targeted to PTEN at a dose of 3.2, 10, 32 and 100 mg/kg. The mice were sacrificed 48 hours following the last administration. Liver tissues were homogenized and mRNA levels were quantitated using real-time PCR using procedures illustrated herein for comparison to untreated control levels (% UTC). Plasma chemistry analysis was also completed. Tms were determined in 100 mM phosphate buffer, 0.1 mM EDTA, pH 7, at 260 nm using 4 μM of the gapped oligomeric compounds listed below and 4 μM of the complementary RNA."}, "[2]": {"experiment": "Liver transaminase levels (ALT) in serum, plasma chemistry analysis", "assay_type": "in vivo, Balb/c mice", "details": "approximate serum level, mice, 48 hours; for ALT @ 3.2 mg/kg: single dose 3.2 mg/kg; for ALT @ 10 mg/kg: single dose 10 mg/kg; for ALT @ 32 mg/kg: single dose 32 mg/kg; for ALT @ 100 mg/kg: single dose 100 mg/kg", "procedure": "as §1\nLiver transaminase levels, alanine aminotranferease (ALT) and aspartate aminotransferase (AST), in serum were also measured relative to saline injected mice."}, "PTEN": {"tested_on": "PTEN", "experiment": "3-10-3 gapped oligomeric compounds targeted to PTEN: in vivo study, liver mRNA levels by real-time PCR", "set-up": "species or system Balb/c mice", "details": "estimated ED50 for liver PTEN mRNA reduction (% UTC); single dose of 3.2, 10, 32 and 100 mg/kg; sacrificed 48 hours after administration; calculated using Graphpad Prism", "description": "Quantitation of target mRNA levels is accomplished by real-time quantitative PCR using the ABI PRISM™ 7600, 7700, or 7900 Sequence Detection System (PE-Applied Biosystems, Foster City, Calif.) according to manufacturer's instructions. This is a closed-tube, non-gel-based, fluorescence detection system which allows high-throughput quantitation of polymerase chain reaction (PCR) products in real-time. As opposed to standard PCR in which amplification products are quantitated after the PCR is completed, products in real-time quantitative PCR are quantitated as they accumulate. […] With each cycle, additional reporter dye molecules are cleaved from their respective probes, and the fluorescence intensity is monitored at regular intervals by laser optics built into the ABI PRISM™ Sequence Detection System. In each assay, a series of parallel reactions containing serial dilutions of mRNA from untreated control samples generates a standard curve that is used to quantitate the percent inhibition after antisense oligonucleotide treatment of test samples.\nPrior to quantitative PCR analysis, primer-probe sets specific to the target gene being measured are evaluated for their ability to be “multiplexed” with a GAPDH amplification reaction. […]"}}}
{"substance": "Te^mCeTeTAG^mCA^mCTGGC^mCeTeTe (DNA TCTTAGCACTGGCCTT; all phosphorothioate, sugars by position and methylation of C not given here; 3-10-3 gapmer, wing nucleosides defined elsewhere, some cytosines 5-methylated) [05/464846]", "values": [{"measurement": "Tm (° C.) vs. 20-mer RNA", "setting": "[1]", "result": 62.35, "unit": "°C"}, {"measurement": "ALT @ 3.2 mg/kg", "setting": "[2]", "result": 38}, {"measurement": "ALT @ 10 mg/kg", "setting": "[2]", "result": 25}, {"measurement": "ALT @ 32 mg/kg", "setting": "[2]", "result": 22}, {"measurement": "ALT @ 100 mg/kg", "setting": "[2]", "result": 22}, {"measurement": "ED50", "setting": "PTEN", "result": 91, "unit": "mg/kg"}]}
{"substance": "Tf^mCfTfTAG^mCA^mCTGGC^mCfTfTf (DNA TCTTAGCACTGGCCTT; all phosphorothioate, sugars by position and methylation of C not given here; wing nucleosides modified (marked e), some C 5-methyl) [05/464847]", "values": [{"measurement": "Tm (° C.) vs. 20-mer RNA", "setting": "[1]", "result": 64.37, "unit": "°C"}, {"measurement": "ALT @ 3.2 mg/kg", "setting": "[2]", "result": 24}, {"measurement": "ALT @ 10 mg/kg", "setting": "[2]", "result": 23}, {"measurement": "ALT @ 32 mg/kg", "setting": "[2]", "result": 24}, {"measurement": "ALT @ 100 mg/kg", "setting": "[2]", "result": 284}, {"measurement": "ED50", "setting": "PTEN", "result": 22, "unit": "mg/kg"}]}
